Consider one compound from US11760979B2, “Isolated liver cancer stem cell and method for drug screening thereof” (LICENSE BIOTECHNOLOGY Co., Ltd., priority 2020, dated 2023).

SMILES strings stand for the structures. Entries after “also recorded” stand apart in the source; their conditions may differ.

Assay [1] has as its system TW-1 cell line. The experiment in a line: In vitro drug screening test (cell survival rate). In kind it is cell-based, rat. The procedure:
The purpose of the method of drug screening is to evaluate the inhibitory ability of the active ingredients of currently used anticancer drugs against the growth, recurrence, or metastasis of TW-1 cell line, and HTC cell line was used as control group. The active ingredient of anticancer drug be used in the embodiment was Sorafenib.
TW-1 cell line and HTC cell line were seeded in 96-well plate with 2×10^5 cells/well, 1 μM, 5 μM, 10 μM, 20 μM and 40 μM of Sorafenib were respectfully used for treating cells once the cells were attached, and the negative control group cells were treated with PBS.

Assay [2] concerns TW-1 cell line. Nature of the assay: In vivo drug screening test, TW-1 cell line transplanted subcutaneously. Also noted: species or system BALB/cAnN.Cg-Foxnl^nu/CrlNarl nude mice. The following applies: nude mice. The procedure: The purpose of the method of drug screening is to evaluate the inhibitory ability of the active ingredients of currently used anticancer drugs against the growth, recurrence, or metastasis of TW-1 cell line, and BALB/cAnN.Cg-Foxnl^nu/CrlNarl nude mice were used as the animal model. The active ingredient of anticancer drug be used in the embodiment was Sorafenib.
BALB/cAnN.Cg-Foxnl^nu/CrlNarl nude mice were grouped into 3 groups, control group (Control), low-dose Sorafenib group (10 mg/kg body weight (BD)) and high-dose Sorafenib group (50 mg/kg body weight (BD)), 5 mice in each group.
Transplanting of TW-1 cell line into BALB/cAnN.Cg-Foxnl^nu/CrlNarl nude mice were processed with 5×10^5 cells by subcutaneous injection for evaluating the effect of anticancer drugs against TW-1 cell line.
After the tumor grew to appropriate size (100-150 mm^3) that was able to be measured at the TW-1 cell line transplanted position, the mice were treated with Sorafenib (Sorafenib groups) or PBS (control group) once per three days, and tumor generation of the mice were measured for 30 days the tumor volume of mice were recorded once per five days.

Regarding `CNC(=O)c1cc(Oc2ccc(NC(=O)Nc3ccc(Cl)c(C(F)(F)F)c3)cc2)ccn1` [Sorafenib], the cell growth result in assay [1] (40 μM Sorafenib, 24 and 48 hours post-treatment) is recorded as “the cell growth was decreased; also recorded: had the ability to inhibit growth of TW-1 cell line, but TW-1 cell line was not killed”. Also, the “sensitivity to Sorafenib (cell survival rate), TW-1 cell line compared with HTC cell line” value in assay [1] (concentration lower than 10 μM, after treatment for 24 hours, HTC cell line as control) is reported as “higher sensitivity”. The “drug tolerance of TW-1 cell line compared with HTC cell lines” value in assay [1] (high concentration (up to 40 μM), more obvious after 48 hours post-treatment) is on record as “much higher drug tolerance”. The “tumor volume of high-dose Sorafenib group vs low-dose Sorafenib group” value in assay [2] (50 mg/kg vs 10 mg/kg body weight, once per three days, 30 days) was “significantly higher than that in low-dose Sorafenib group mice”. Moreover, the “tumor volume of Sorafenib treating groups vs control group” value in assay [2] (10 and 50 mg/kg body weight, once per three days, measured for 30 days) is on record as “significantly higher than that in control group”. In addition, the “metastasis of TW-1 cell line to lung” value in assay [2] (high-dose Sorafenib (50 mg/kg body weight), drug dependent) is recorded as “high-dose Sorafenib induced high metastasis”.
